The text below walks through data of patent US20230303510A1, “CYCLIZED ACETAMIDO DERIVATIVES AS DNA POLYMERASE THETA INHIBITORS” (Ideaya Biosciences, Inc., priority 2020, published 2023).

Some results are limits rather than exact numbers.

The first experiment concerns the target T1, Pol theta (residues 1819-2590) (Homo sapiens, UniProt O75417).
T1 construct: Pol theta polymerase domain (residues 1819-2590) at a final concentration of 4 nM
T1 sequence (O75417 1819-2590): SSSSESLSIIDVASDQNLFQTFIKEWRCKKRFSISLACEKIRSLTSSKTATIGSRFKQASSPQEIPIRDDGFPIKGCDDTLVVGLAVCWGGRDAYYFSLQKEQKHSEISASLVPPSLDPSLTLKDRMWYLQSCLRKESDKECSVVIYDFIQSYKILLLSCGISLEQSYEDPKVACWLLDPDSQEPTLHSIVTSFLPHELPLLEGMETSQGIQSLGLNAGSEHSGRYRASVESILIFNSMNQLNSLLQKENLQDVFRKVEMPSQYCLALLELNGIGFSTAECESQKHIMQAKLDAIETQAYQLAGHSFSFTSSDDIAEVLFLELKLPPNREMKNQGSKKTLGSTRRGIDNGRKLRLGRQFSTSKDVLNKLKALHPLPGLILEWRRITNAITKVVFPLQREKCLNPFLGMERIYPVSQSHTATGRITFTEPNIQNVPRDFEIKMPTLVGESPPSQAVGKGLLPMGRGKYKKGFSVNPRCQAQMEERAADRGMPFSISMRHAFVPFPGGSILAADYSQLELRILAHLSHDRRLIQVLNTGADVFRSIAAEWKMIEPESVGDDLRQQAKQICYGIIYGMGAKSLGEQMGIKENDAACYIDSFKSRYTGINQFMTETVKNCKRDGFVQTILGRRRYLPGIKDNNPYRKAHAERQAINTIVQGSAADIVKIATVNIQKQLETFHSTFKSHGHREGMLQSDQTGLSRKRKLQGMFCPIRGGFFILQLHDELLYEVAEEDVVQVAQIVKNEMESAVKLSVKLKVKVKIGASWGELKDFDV
Briefly: PPi assay (inhibition of polymerase activity of Pol theta, PPiLite luminescence). The class given is biochemical. Conditions: Pol theta 2.8 nM; luminescence kinetic mode 90 min. As for the experimental part:
The ability of the compounds of Formula (I) or Formula (II) to inhibit polymerase activity of Pol theta was determined using the PPi assay as set forth below.
A mixture of template DNA strand (SEQ ID NO:4: 5′ ATTACTGACCTCATACTTCTGCCCTTCCATGTTCTGTGCCCTCCTTCC 3′) and primer DNA strand (SEQ ID NO:5: 5′ GGA AGG AGG GCA CAG AAC 3′) was annealed in 10 mM Tris-HCl pH 8.0, […] buffer to form the primed DNA substrate. A 10-point dilution series of compounds were used in a 384 well format for the inhibition assay. Pol theta (residues 1819-2590) (2.8 nM) in assay buffer (20 mM Tris-HCl pH 7.8, 50 mM KCl, 10 mM MgCl2, 1 mM DTT, 0.01% BSA, 0.01% Tween-20) was transferred to the test wells (10 uL), except for the low control wells. The plate was then incubated at room temperature for 15 mins. An equal volume (10 μL) of dNTP substrate (40 μM) and primed DNA substrate (800 nM) in assay buffer was added to all the test wells. 20 μL of PPi detection reagent (PPiLite inorganic pyrophosphate assay, Lonzo) was then added to all test wells. The plate was then centrifuged at 1000 rpm for 1 min. The reaction was monitored in a Tecan M1000 Pro plate reader in luminescence kinetic mode for 90 min. The high control (DMSO with enzyme) with high luminescence represents no inhibition of the polymerase reaction while the low control (DMSO with buffer) with low luminescence represents full inhibition of the polymerase activity. Slope of the reaction progress curves were used to calculate the rate of polymerization. The rates were used to determine the percent inhibition using a four-parameter inhibition model to generate IC50, Hill slope, maximum inhibition, and minimum inhibition.
`C[C@H]1CC[C@@H](C(=O)N(C)c2ccc(F)cc2)N1c1cc(C(F)(F)F)cc(C(F)(F)F)n1` [1.021, (2S,5S)-1-(4,6-bis(trifluoromethyl)pyridin-2-yl)-N-(4-fluorophenyl)-N,5-dimethylpyrrolidine-2-carboxamide] registered an IC50 of at most 200 nM.
Compound `C[C@@H]1CC[C@@H](C(=O)N(C)c2ccc(F)cc2)N1c1cc(C(F)(F)F)cc(C(F)(F)F)n1` [1.023, (2S,5R)-1-(4,6-bis(trifluoromethyl)pyridin-2-yl)-N-(4-fluorophenyl)-N,5-dimethylpyrrolidine-2-carboxamide] displayed a half-inhibitory concentration (IC50) of 500 to 1000 nM.
Compound `CN(C(=O)[C@@H]1CCN1c1nc(C(F)(F)F)cc(C(F)(F)F)c1C#N)c1ccc(F)cc1` [1.025, (S)-1-(3-cyano-4,6-bis(trifluoromethyl)pyridin-2-yl)-N-(4-fluorophenyl)-N-methylazetidine-2-carboxamide] showed an IC50 of at most 200 nM.
For `Fc1ccc(-c2cccnc2[C@@H]2CCCN2c2cc(C(F)(F)F)cc(C(F)(F)F)n2)cc1` [1.026, (S)-2-(2-(3-(4-fluorophenyl)pyridin-2-yl)pyrrolidin-1-yl)-4,6-bis(trifluoromethyl)pyridine], the IC50 was at most 200 nM.
On the same count and under the same terms, the value for `Fc1ccc(-c2cccnc2[C@H]2CCCN2c2cc(C(F)(F)F)cc(C(F)(F)F)n2)cc1` [1.027, (R)-2-(2-(3-(4-fluorophenyl)pyridin-2-yl)pyrrolidin-1-yl)-4,6-bis(trifluoromethyl)pyridine] was 1000 to 10000 nM; that for `O=C([C@@H]1CCCN1c1cc(C(F)(F)F)cc(C(F)(F)F)n1)N(c1ccccc1)c1ccccc1` [1.028, (S)-1-(4,6-bis(trifluoromethyl)pyridin-2-yl)-N,N-diphenylpyrrolidine-2-carboxamide] was 1000 to 10000 nM.
In turn, `CN(C(=O)[C@@H]1[C@H](O)CCN1c1cc(C(F)(F)F)cc(C(F)(F)F)n1)c1ccc(F)cc1` [1.029, (2S,3R)-1-(4,6-bis(trifluoromethyl)pyridin-2-yl)-N-(4-fluorophenyl)-3-hydroxy-N-methylpyrrolidine-2-carboxamide] displayed an IC50 of at most 200 nM.

In the next experiment the target is T2, Pol theta polymerase domain (residues 1819-2590) (Homo sapiens, UniProt O75417).
T2 construct: Pol theta polymerase domain (residues 1819-2590) at a final concentration of 4 nM
T2 sequence (O75417 1819-2590): T1 sequence (O75417 1819-2590)
The experiment in a line: Primer extension assay (inhibition of polymerase activity of Pol theta, molecular beacon fluorescence). Format: biochemical. Conditions: Pol theta polymerase domain 4 nM; fluorescence change over 30 min. Here is the method: The ability of the compounds of Formula (I) or Formula (II) to inhibit polymerase activity of Pol theta was determined using the primer extension assay as set forth below.
A mixture of 20 uL of Pol theta polymerase domain (residues 1819-2590) at a final concentration of 4 nM in assay buffer (20 m M TRIS, pH 7.80, 50 mM KCl, 10 mM MgCl2, 1 mM DTT, 0.01% BSA, 0.01% Tween20) was added to test compounds (11-point dilution series of test compounds) except the low control wells without test compounds. The above enzyme and test compound inhibitor mixture was then incubated at room temperature for 15 min. An equal volume (20 μl) of dNTP substrate mixture (48 μM) and primed molecular beacon DNA (obtained by annealing template SEQ ID NO:2: (5′-CCTTCCTCCCGTGTCTTG-TACCTTCCCGTCA-GGAGGAAGG-3′) with 5′-TAMRA and 3′-BHQ and primer DNA (SEQ ID NO:3; 5′-GACGGGAAGG-3′) in 10 mM Tris-HCl pH 8.0, 100 mM NaCl buffer) (96 nM) in assay buffer was added to all the test wells. The inhibition activity was measured by monitoring the fluorescence change over 30 min at 535 nm upon excitation at 485 nm. The high control (DMSO with enzyme) with high fluorescence intensity represents no inhibition of polymerase reaction while the low control (DMSO with buffer) with low fluorescence intensity represents full inhibition of polymerase activity. Slope of the reaction progress curves were used to calculate the rate of polymerization. The rates were used to determine the percent inhibition using a four-parameter inhibition model to generate IC50, Hill slope and max inhibition.
For `CN(C(=O)C1CCCN1c1cc(C(F)(F)F)cc(C(F)(F)F)n1)c1ccc(F)cc1` (centres unmarked) [1.001, 1-(4,6-bis(trifluoromethyl)pyridin-2-yl)-N-(4-fluorophenyl)-N-methylpyrrolidine-2-carboxamide], the IC50 was at most 200 nM.
As for `CN(C(=O)C1CCCN1c1ccccc1)c1ccccc1` (centres unmarked) [1.004, N-methyl-N,1-diphenylpyrrolidine-2-carboxamide], the IC50 was in the range of 1000 to 10000 nM.
The compound `CN(C(=O)C1CCN1c1cc(C(F)(F)F)cc(C(F)(F)F)n1)c1ccc(F)cc1` (centres unmarked) [1.005, 1-(4,6-bis(trifluoromethyl)pyridin-2-yl)-N-(4-fluorophenyl)-N-methylazetidine-2-carboxamide] came in with an IC50 of at most 200 nM.
The compound `CN(C(=O)C1CCCCN1c1cc(C(F)(F)F)cc(C(F)(F)F)n1)c1ccc(F)cc1` (centres unmarked) [1.007, 1-(4,6-bis(trifluoromethyl)pyridin-2-yl)-N-(4-fluorophenyl)-N-methylpiperidine-2-carboxamide] had an IC50 of at most 200 nM.
Regarding `Fc1ccc(-c2cccnc2C2CCCN2c2cc(C(F)(F)F)cc(C(F)(F)F)n2)cc1` (centres unmarked) [1.008, 2-(2-(3-(4-fluorophenyl)pyridin-2-yl)pyrrolidin-1-yl)-4,6-bis(trifluoromethyl)pyridine], the IC50 was at most 200 nM.
`CN(C(=O)[C@@H]1CCCN1c1cc(C(F)(F)F)cc(C(F)(F)F)n1)c1ccc(Br)cc1` [1.009, (S)-1-(4,6-bis(trifluoromethyl)pyridin-2-yl)-N-(4-bromophenyl)-N-methylpyrrolidine-2-carboxamide] yielded an IC50 of at most 200 nM.
`CN(C(=O)[C@@H]1CCCN1c1cc(C(F)(F)F)cc(C(F)(F)F)n1)c1ccc2occc2c1` [1.010, (S)-N-(benzofuran-5-yl)-1-(4,6-bis(trifluoromethyl)pyridin-2-yl)-N-methylpyrrolidine-2-carboxamide]: the IC50 is at most 200 nM.
Regarding `CN(C(=O)[C@@H]1CCCN1c1cc(C(F)(F)F)cc(C(F)(F)F)n1)c1ccncc1` [1.011, (S)-1-(4,6-bis(trifluoromethyl)pyridin-2-yl)-N-methyl-N-(pyridin-4-yl)pyrrolidine-2-carboxamide], the IC50 was at most 200 nM.
Compound `O=C([C@@H]1CCCN1c1cc(C(F)(F)F)cc(C(F)(F)F)n1)N(c1ccc(F)cc1)C1CC1` [1.012, (S)-1-(4,6-bis(trifluoromethyl)pyridin-2-yl)-N-cyclopropyl-N-(4-fluorophenyl)pyrrolidine-2-carboxamide] yielded an IC50 of at most 200 nM.
`CN(C(=O)[C@@H]1C[C@H](O)CN1c1cc(C(F)(F)F)cc(C(F)(F)F)n1)c1ccc(F)cc1` [1.013, (2S,4S)-1-(4,6-bis(trifluoromethyl)pyridin-2-yl)-N-(4-fluorophenyl)-4-hydroxy-N-methylpyrrolidine-2-carboxamide] gave an IC50 of at most 200 nM.
`CN(C(=O)[C@@H]1CCCN1c1cc(C(F)(F)F)ccn1)c1ccc(F)cc1` [1.014, (S)-N-(4-fluorophenyl)-N-methyl-1-(4-(trifluoromethyl)pyridin-2-yl)pyrrolidine-2-carboxamide]: the IC50 was at most 200 nM.
Still for that read-out and setting: as for `CN(C(=O)[C@@H]1CCCN1c1cccc(C(F)(F)F)n1)c1ccc(F)cc1` [1.015, (S)-N-(4-fluorophenyl)-N-methyl-1-(6-(trifluoromethyl)pyridin-2-yl)pyrrolidine-2-carboxamide], the figure is at most 200 nM.
`CN(C(=O)[C@@H]1C[C@@H](O)CN1c1cc(C(F)(F)F)cc(C(F)(F)F)n1)c1ccc(F)cc1` [1.016, (2S,4R)-1-(4,6-bis(trifluoromethyl)pyridin-2-yl)-N-(4-fluorophenyl)-4-hydroxy-N-methylpyrrolidine-2-carboxamide] had an IC50 of at most 200 nM.
In turn, `CN(C(=O)C1CCCN1c1nc(C(F)(F)F)cc(C(F)(F)F)n1)c1ccc(F)cc1` (centres unmarked) [1.017, 1-(4,6-bis(trifluoromethyl)pyrimidin-2-yl)-N-(4-fluorophenyl)-N-methylpyrrolidine-2-carboxamide] registered an IC50 of at most 200 nM.
For the compound `CN(C(=O)[C@@H]1CCCN1c1cc(C(F)(F)F)cc(C(F)(F)F)n1)c1cccc(C#N)c1` [1.018, (S)-1-(4,6-bis(trifluoromethyl)pyridin-2-yl)-N-(3-cyanophenyl)-N-methylpyrrolidine-2-carboxamide], the IC50 was at most 200 nM.
Still for that read-out and setting: as for `Cc1cc(C)nc(N2CCC[C@H]2C(=O)N(C)c2ccc(F)cc2)c1` [1.031, (S)-1-(4,6-dimethylpyridin-2-yl)-N-(4-fluorophenyl)-N-methylpyrrolidine-2-carboxamide], the figure is 200 to 500 nM.

In general, IC50 refers to the midpoint of a concentration-inhibition curve. A low value points to greater potency.
